Assay results as given in patent publication US5620676A, “Biologically active ATP analogs” (priority 1995, dated 1997).
Entries after “also recorded” stand apart in the source; their conditions may differ. Like-named read-outs stand apart in the source and are kept apart here.

How the values were obtained:
[1] = molecular target: T1, P2Y receptor (taenia coli) (Cavia porcellus, UniProt P59902); experiment: Relaxation of carbachol-contracted guinea pig taenia coli
T1 construct: Relaxant responses mediated via P2Y receptors were examined in guinea pig taenia coli; from tissue; host or cells: guinea pig taenia coli (carbachol-contracted)
From the text: (§1) Muscular relaxation/contraction: Relaxant responses mediated via P2Y receptors were examined in guinea pig taenia coli, rabbit aorta, and rabbit mesenteric artery, as described by Hoyle et al. (Br. J. Pharmacol., 107, 367-374 (1992a)), Burnstock et al., (Br. J. Pharmacol., 90, 383-391 (1987a)), and Rubino et al., (Eur. J. Pharmacol., 212, 237-240 (1992)). Contractile responses mediated via P2X receptors were examined in the guinea pig urinary bladder and vas deferens, and rabbit saphenous artery, also using standard methods (see Hoyle et al., supra., 1992; Hoyle et al., Br. J. Pharmacol., 99, 617-621 (1990); and Burnstock et al., Br. J. Pharmacol., 90, 111-120 (1987b)).
Muscular relaxation assays were performed as recited in Example 3. […] All curves are the mean of two determinations except for 5'-ATP (n=38), 2-hexylthio-ATP (n=4), 2-(5-hexenyl)thio-ATP (n=3), and 2-(2-4-nitrophenylethyl)thio-AMP (n=5). […] The pD2 value for 2-methylthio-ATP is 8.0±0.15, as reported by Hoyle et al., in Receptor Data for Biological Experiments, (H. N. Doods and J. C. A. Van Meel, eds., 1992b) at pp. 54-61.
(§2) Phospholipase C activity and muscle relaxation/contraction effects were assessed using the methods recited in Example 3. In FIGS. 10-12, which present the result of assays of phospholipase C activity in turkey erythrocyte membranes, the x-axis is marked in units of the log of the molar concentration of the putative P2Y receptor agonist tested and the y-axis is marked in units of the percentage of maximum production of [^3 H]-inositol phosphate generated. In FIG. 13, the x-axis is marked in units of the negative log of the molar concentration of applied putative P2Y receptor agonists and the y-axis is marked in units of the percentage relaxation of the 50 nM carbachol-induced contraction of guinea pig taenia coli. In FIG. 14, the x-axis is also marked in units of the negative log of the molar concentration of applied putative P2Y receptor agonists and the y-axis is marked in units of the percentage relaxation of the 1 μM noradrenalin-induced contraction of rabbit aorta endothelium. In FIGS. 15-16, the x-axis is marked in units of the negative log of the molar concentration of applied putative p^2X receptor agonists and the y-axis is marked in units of the percentage contraction relative to a standard dose of KCl (i.e., 60 mM), as assessed in guinea pig isolated urinary bladder detrussor muscle (FIG. 15) and guinea pig isolated vas deferens (FIG. 16).

[2] = molecular target: T2, P2X receptor (urinary bladder) (Cavia porcellus, UniProt A0A286XVA9); experiment: Contraction of guinea pig isolated urinary bladder detrussor muscle; settings: guinea pig urinary bladder
T2 construct: guinea pig isolated urinary bladder detrussor muscle; from tissue; host or cells: guinea pig isolated urinary bladder detrusor muscle

[3] = molecular target: T3, P2X receptor (vas deferens) (Cavia porcellus, UniProt A0A286XVA9); experiment: Contraction of guinea pig isolated vas deferens
T3 sequence (A0A286XVA9 1-399): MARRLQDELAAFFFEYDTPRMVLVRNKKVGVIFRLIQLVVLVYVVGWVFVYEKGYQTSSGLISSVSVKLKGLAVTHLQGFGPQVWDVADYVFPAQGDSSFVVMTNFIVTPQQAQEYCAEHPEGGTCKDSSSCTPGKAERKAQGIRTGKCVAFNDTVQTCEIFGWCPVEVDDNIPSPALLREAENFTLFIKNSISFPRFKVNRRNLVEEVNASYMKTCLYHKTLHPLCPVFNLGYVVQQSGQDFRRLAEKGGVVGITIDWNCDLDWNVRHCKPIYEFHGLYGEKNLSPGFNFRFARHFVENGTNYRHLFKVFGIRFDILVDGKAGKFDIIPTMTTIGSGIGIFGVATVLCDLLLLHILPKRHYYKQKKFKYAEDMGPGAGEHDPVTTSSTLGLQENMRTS

[4] = molecular target: T4, P2Y receptor (turkey erythrocyte membranes) (Meleagris gallopavo, UniProt P49652); experiment: Stimulation of phospholipase C (inositol phosphate formation) in turkey erythrocyte membranes; assay type: biochemical; settings: for activity/potency in words, turkey erythrocyte / EC50: turkey erythrocyte membranes
T4 construct: from tissue; host or cells: washed turkey erythrocytes, ghosts prepared by hypotonic lysis
Experimental: Phospholipase C activity: Stimulation of inositol phosphate formation by compounds of the present invention was measured in turkey erythrocyte membranes as described by Harden et al., supra and Boyer et al., supra. The K0.5 values were averaged from 3-8 independently determined dose-response curves for each compound. Briefly, one ml of washed turkey erythrocytes was incubated in inositol-free medium (DMEM; Gibco) with 0.5-1 mCi of 2-[^3 H]myoinositol (20 Ci/mmol; American Radiolabeled Chemicals Inc., St. Louis, Mo.)for 18-24 h in a humidified atmosphere of 95% air 5% CO2 at 37° C. Erythrocyte ghosts were prepared by rapid lysis in hypotonic buffer (5 mM sodium phosphate, pH 7.4, 5 mM MgCl2, 1 mM EGTA) as described by Boyer et al., supra. Phospholipase C activity was measured in 25 μl of [^3 H]inositol-labeled ghosts (≈175 μg of protein, 200-500,000 cpm/assay) in a medium containing 424 μM CaC12, 0.91 mM MgSO4, 2 mM EGTA, 115 mM KCl, 5 mM KH2 PO4, and 10 mM Hepes, pH 7.0. Assay (100 μl or 200 μl final volume) contained 1 μM GTPγS and the indicated concentrations of nucleotide analogs. Ghosts were incubated at 30° C. for 5 min, and total [^3 H]inositol phosphates were quantitated after purification by anion exchange chromatography according to Harden et al. (supra) and Boyer et al. (supra).
as §2

[5] = molecular target: P2Y receptor (mesenteric artery); experiment: Relaxation of rabbit mesenteric artery; settings: for relaxation pD2, mes. artery: log molar units
[6] = molecular target: T5, P2X receptor (saphenous artery) (Oryctolagus cuniculus, UniProt G1U3D6); experiment: Contraction of rabbit saphenous artery; settings: for activation at 10 µM: read-out: response at 10 μM relative to the contraction produced by 1 μM α,MeATP, saph. artery
T5 construct: and rabbit saphenous artery; from tissue; host or cells: rabbit saphenous artery
T5 sequence (G1U3D6 1-399): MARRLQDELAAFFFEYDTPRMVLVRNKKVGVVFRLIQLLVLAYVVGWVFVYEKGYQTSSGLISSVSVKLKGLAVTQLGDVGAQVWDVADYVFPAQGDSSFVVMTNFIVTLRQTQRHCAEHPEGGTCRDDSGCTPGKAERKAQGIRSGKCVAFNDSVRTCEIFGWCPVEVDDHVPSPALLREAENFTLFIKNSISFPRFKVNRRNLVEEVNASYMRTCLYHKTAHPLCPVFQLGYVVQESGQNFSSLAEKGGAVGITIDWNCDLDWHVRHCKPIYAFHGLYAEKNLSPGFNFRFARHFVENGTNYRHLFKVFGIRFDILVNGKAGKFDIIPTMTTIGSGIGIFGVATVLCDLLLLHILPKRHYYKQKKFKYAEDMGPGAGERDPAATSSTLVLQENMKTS
From the text: as §1
^c For the saphenous artery, the percentages in brackets are response
at 10 μM relative to the contraction produced by 1 μM α,MeATP
ATP in this assay is very weak (EC50 =
1.78 mM). The highest concentrations of the analogues tested were 3-30

[7] = system: P2Y receptor (aorta endothelium); experiment: Relaxation of noradrenalin-contracted rabbit aorta; settings: for relaxation pD2, aorta: rabbit aorta, log molar units
[8] = guinea pig taenia coli, log molar units, read-out: relaxation pD2, taenia coli (converted)
[9] = mean ± S.E.M. for at least 2 determinations, read-out: phosphatidyl inositol metabolism (K0.5, nM) erythrocyte

T4 sequence (P49652 whole entry): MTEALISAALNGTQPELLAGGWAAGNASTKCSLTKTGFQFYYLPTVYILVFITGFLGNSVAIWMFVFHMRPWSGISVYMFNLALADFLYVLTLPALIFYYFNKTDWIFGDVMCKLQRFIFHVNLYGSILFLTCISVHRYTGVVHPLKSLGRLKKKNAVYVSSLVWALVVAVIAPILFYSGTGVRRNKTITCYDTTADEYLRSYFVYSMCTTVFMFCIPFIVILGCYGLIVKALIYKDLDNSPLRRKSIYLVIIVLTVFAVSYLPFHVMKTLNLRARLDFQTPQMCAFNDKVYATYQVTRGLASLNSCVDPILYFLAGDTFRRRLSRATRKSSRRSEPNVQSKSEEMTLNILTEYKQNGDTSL
T1 sequence (P59902 whole entry): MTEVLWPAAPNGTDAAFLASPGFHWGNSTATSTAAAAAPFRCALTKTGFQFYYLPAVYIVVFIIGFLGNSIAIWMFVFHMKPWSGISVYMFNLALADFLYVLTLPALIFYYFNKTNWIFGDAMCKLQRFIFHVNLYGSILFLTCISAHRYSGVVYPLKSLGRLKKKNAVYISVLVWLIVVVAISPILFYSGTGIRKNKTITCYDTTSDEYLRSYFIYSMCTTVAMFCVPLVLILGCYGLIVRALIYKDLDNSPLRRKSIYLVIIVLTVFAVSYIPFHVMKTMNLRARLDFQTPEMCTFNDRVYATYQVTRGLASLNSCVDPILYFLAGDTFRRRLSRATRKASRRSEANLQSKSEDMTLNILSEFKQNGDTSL

## Nc1ncnc2c1ncn2[C@H]1CC[C@@H](COP(=O)(O)OP(=O)(O)OP(=O)(O)O)O1 [2',3'-Dideoxy-ATP, 2',3'-dideoxy-ATP, reference compound]
[1]; guinea pig taenia coli
  activity/potency in words, taenia coli: as potent as ATP at taenia coli P2Y receptors
[1]; [8]
  EC50: 10 µM
[2]
  activity/potency in words, bladder: >ATP
[3]
  activity/potency in words, vas deferens: ≈ATP
[4]
  activity/potency in words, turkey erythrocyte: weakly active at turkey erythrocyte P2Y receptors
[4]; [9]
  EC50: 70800 nM

## N#CCCCCCCSc1nc(N)c2ncn([C@@H]3O[C@H](COP(=O)(O)O)[C@@H](O)[C@H]3O)c2n1 [2-(6-Cyanohexyl)thio-AMP, 2-(6-cyanohexylthio)-AMP]
[5]
  relaxation pD2, mes. artery: 6.2
[1]
  EC50: 39.8 µM
[6]; rabbit saphenous artery, 10 μM
  activation at 10 µM: 4.5%
[4]; [9]
  EC50: 37000 nM
[4]; read-out: K0.5
  EC50: 37000 nM

## CC(=O)N[C@H]1[C@@H](O)[C@H](n2cnc3c(N)ncnc32)O[C@@H]1COP(=O)(O)OP(=O)(O)OP(=O)(O)O [3'-Acetylamino-3'deoxy-ATP, 3'-Acetylamino-3'-deoxyadenosine 5'-triphosphate]
[7]; rabbit aorta endothelial P2Y receptor
  activity/potency/selectivity in words, aorta: inactive at 10 μM at rabbit aorta P2Y receptors
[5]; listed as 3'-Acetylamino-3'-deoxy-ATP
  activity/potency in words, mesenteric artery: more potent than ATP at rabbit mesenteric artery P2Y receptors
[5]; listed as 3'-acetylamino-3'-deoxy-ATP
  activity/potency in words, mesenteric artery: the only P2Y receptor which had any appreciable activity was that in the rabbit mesenteric artery
[1]; guinea pig taenia coli
  activity/potency in words, taenia coli: nearly inactive
[6]; rabbit saphenous artery
  activity/potency in words, saphenous artery: inactive in the saphenous artery
[2]
  activity/potency in words, bladder: more or less as potent as ATP; also recorded: active in the vas deferens and urinary bladder
[3]
  activity/potency in words, vas deferens: more or less as potent as ATP; also recorded: active in the vas deferens and urinary bladder
[4]
  activity/potency in words, turkey erythrocyte: nearly inactive
[4]; [9]
  EC50: > 100000 nM

## Nc1ncnc2c1ncn2[C@@H]1O[C@H](COP(=O)(O)O)[C@@H](O)[C@H]1O [AMP, adenosine 5'-monophosphate, reference compound]
[7]
  relaxation pD2, aorta: 4.8
[5]
  relaxation pD2, mes. artery: 5.0
[1]; guinea pig taenia coli
  activity/potency in words, taenia coli: much less potent
[2]
  activity/potency in words, bladder: inactive
[3]
  activity/potency in words, vas deferens: without effect
[4]; 5 min, at 10^-4 M, read-out: % stimulation at concentration indicated
  activation at 100 µM: 4 ± 2%
[4]
  activity/potency in words, turkey erythrocyte: inactive

## Nc1ncnc2c1ncn2[C@@H]1O[C@H](COP(=O)(O)OP(=O)(O)NP(=O)(O)O)[C@@H](O)[C@H]1O [AppNHp, reference compound]
[7]
  relaxation pD2, aorta: 5.5
[5]
  relaxation pD2, mes. artery: 6.6
[1]; guinea pig taenia coli
  activity/potency in words, taenia coli: an effect similar to methylene replacement
[3]
  activity/potency in words, vas deferens: an effect similar to methylene replacement
[4]
  activity/potency in words, turkey erythrocyte: equipotent with ATP in the erythrocytes
[4]; [9]
  EC50: 4450 ± 1150 nM

## C=CCCCCSc1nc(NC)c2ncn([C@@H]3O[C@H](COP(=O)(O)O)[C@@H](O)[C@H]3O)c2n1 [N^6 -Me-2-(5-hexenyl)-thio-AMP, N^6 -Me-2-(5-hexenylthio)adenosine monophosphate]
[6]; rabbit saphenous artery, 10 μM
  activation at 10 µM: 6.7%
[4]; [9]
  EC50: > 100000 nM

## O=c1ccn([C@@H]2O[C@H](COP(=O)(O)OP(=O)(O)OP(=O)(O)O)[C@@H](O)[C@H]2O)c(=O)[nH]1 [UTP, reference compound]
[7]
  relaxation pD2, aorta: 4.8
[5]
  relaxation pD2, mes. artery: 6.7
[1]; [8]
  EC50: 316 µM
[2]
  activity/potency in words, bladder: as potent as or more potent than ATP in the bladder
[3]
  activity/potency in words, vas deferens: without effect in the vas deferens
[4]; [9]
  EC50: 143000 nM

## Nc1ncnc2c1ncn2[C@@H]1O[C@H](COP(=O)(O)OP(=O)(O)CP(=O)(O)O)[C@@H](O)[C@H]1O [β,γ-Me-ATP, β,γ-methylene-ATP, reference compound]
[1]; guinea pig taenia coli
  activity/potency in words, taenia coli: reduced activity in the taenia coli
[6]
  activation at 10 µM: 89%
[2]
  activity/potency in words, bladder: markedly enhanced activity
[3]
  activity/potency in words, vas deferens: markedly enhanced activity
[4]; phosphatidyl inositol metabolism (K0.5, nM) erythrocyte, mean ± S.E.M. for at least 2 determinations
  EC50: > 100000 nM
[4]
  activity/potency in words, turkey erythrocyte: nearly inactive at ≥100 μM
